Experimental data reported in patent US6969730B2, “Amines as histamine-3 receptor ligands and their therapeutic applications” (Abbott Laboratories, priority 2001, dated 2005).
Counter-ions that a name gives are not always drawn.

Tested on: not given
Assay: not given
Conditions: not given

Compound	melting point [°C]
CC[C@@H]1CCCN1CCc1cc2cc(-c3ccc(C#N)cc3)ccc2o1 (as salt: tartrate) [Example 163, 4-(2-{2-[(2R)-2-ethyl-1-pyrrolidinyl]ethyl}-1-benzofuran-5-yl)benzonitrile]	147
N#Cc1ccc(-c2ccc3oc(CCN4CCC[C@H]4CF)cc3c2)cc1 (as salt: tartrate) [Example 164, 4-(2-{2-[(2S)-2-(fluoromethyl)-1-pyrrolidinyl]ethyl}-1-benzofuran-5-yl)benzonitrile]	156.3
N#Cc1ccc(-c2ccc3oc(CCN)cc3c2)cc1 [Example 162, 4-[2-(2-aminoethyl)-1-benzofuran-5-yl]benzonitrile]	118 to 120

Biological target: T1, histamine-3 receptors (H3 receptor) (Rattus norvegicus, UniProt Q9QYN8)
T1 construct: from tissue; host or cells: male Sprague-Dawley rat brain cortex membranes
Assay: (3H)-N-α-methylhistamine binding to rat cortical membranes (histamine-3 receptor ligands)
Conditions: male Sprague-Dawley rat brain cortical membranes; (3H)-N-α-methylhistamine ~0.6 nM; 30 minutes at 25° C.; Cheng-Prusoff

T1 sequence (Q9QYN8 whole entry): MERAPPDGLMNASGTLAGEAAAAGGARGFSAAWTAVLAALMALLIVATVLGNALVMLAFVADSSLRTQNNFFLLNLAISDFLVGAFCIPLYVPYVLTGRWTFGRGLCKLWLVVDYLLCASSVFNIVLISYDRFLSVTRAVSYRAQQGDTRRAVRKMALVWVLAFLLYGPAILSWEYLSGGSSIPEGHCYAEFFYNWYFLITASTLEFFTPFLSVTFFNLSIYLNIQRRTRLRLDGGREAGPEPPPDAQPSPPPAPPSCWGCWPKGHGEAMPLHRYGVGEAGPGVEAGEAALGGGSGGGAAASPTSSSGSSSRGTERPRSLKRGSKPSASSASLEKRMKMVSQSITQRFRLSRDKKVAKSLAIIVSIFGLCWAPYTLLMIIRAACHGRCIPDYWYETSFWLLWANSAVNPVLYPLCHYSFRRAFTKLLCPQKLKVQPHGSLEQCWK

Compound	Ki [nM]
N#Cc1ccc(-c2ccc3oc(CCN)cc3c2)cc1 [Example 162, 4-[2-(2-aminoethyl)-1-benzofuran-5-yl]benzonitrile]	581
(2R)-1-{2-[5-(4-methoxyphenyl)-1-benzofuran-2-yl]ethyl}-2-methylpyrrolidine [Example 121]	51
(2S)-1-(2-{5-[5-(4-morpholinylcarbonyl)-2-pyridinyl]-1-benzofuran-2-yl}ethyl)-2-pyrrolidinol [Example 62]	112
